Here are results for 6 compounds from publication PMC3988539 (Neuropsychopharmacology : official publication of the …, 2013).

Structures are written as SMILES. pEC50: −log10 of the molar value. Where a name gives a salt, the structure may show the parent alone.

A word on the pEC50: it is −log10 of the EC50, conventionally taken in molar units. A higher pEC50 goes with a small EC50.

The test system of experiment [1] is extracellular 5-HT in nucleus accumbens. The class given is in vivo, rat. As to conditions: 6 mg/kg i.p.; for persistent elevation of extracellular 5-HT for the duration of sampling: 4 doses every 2 h, 8 h sampling, % of basal; for extracellular 5-HT after the first dose: first of 4 doses, nucleus accumbens dialysate.
The test system of experiment [2] is extracellular dopamine in nucleus accumbens. The experiment can be described thus: In vivo microdialysis in rat nucleus accumbens, dialysate dopamine. Conditions: 6 mg/kg i.p., 4 doses; not different from saline in post hoc tests.
The next experiment addresses hSERT (Homo sapiens, UniProt P31645). The experiment can be described thus: cell-based. It is filed as cell-based. Conditions: for concentration at which maximal current was measured: bell-shaped concentration-response curve; for inwardly-directed current compared to 5-HT-induced current: raw current traces, reference 10 μM 5-HT.
The next experiment concerns the target SERT (Rattus norvegicus, UniProt P31652). The experiment can be described thus: In vitro [3H]5-HT release from rat brain synaptosomes. The class given is biochemical.
In experiment [3] the test system is [3H]dopamine release, rat caudate synaptosomes. The experiment can be described thus: In vitro [3H]dopamine release from rat caudate synaptosomes. The class given is biochemical. Conditions: tested at concentrations up to 10 μM (data not shown).

Sequence of hSERT (P31645 whole entry): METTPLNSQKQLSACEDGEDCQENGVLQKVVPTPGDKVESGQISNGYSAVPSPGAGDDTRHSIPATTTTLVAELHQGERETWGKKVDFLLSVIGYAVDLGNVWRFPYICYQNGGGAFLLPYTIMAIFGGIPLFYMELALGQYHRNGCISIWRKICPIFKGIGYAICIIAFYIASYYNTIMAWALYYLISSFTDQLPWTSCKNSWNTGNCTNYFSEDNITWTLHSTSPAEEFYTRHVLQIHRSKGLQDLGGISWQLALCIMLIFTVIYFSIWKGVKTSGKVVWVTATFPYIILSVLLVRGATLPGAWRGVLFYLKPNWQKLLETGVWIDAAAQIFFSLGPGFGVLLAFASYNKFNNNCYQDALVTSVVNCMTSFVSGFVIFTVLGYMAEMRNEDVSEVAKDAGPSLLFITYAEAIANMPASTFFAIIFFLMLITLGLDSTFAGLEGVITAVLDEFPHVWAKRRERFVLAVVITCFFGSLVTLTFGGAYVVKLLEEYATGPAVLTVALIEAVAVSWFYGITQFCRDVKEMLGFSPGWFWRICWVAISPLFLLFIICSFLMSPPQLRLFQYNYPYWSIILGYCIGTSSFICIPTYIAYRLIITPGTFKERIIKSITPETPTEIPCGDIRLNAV
Sequence of SERT (P31652 whole entry): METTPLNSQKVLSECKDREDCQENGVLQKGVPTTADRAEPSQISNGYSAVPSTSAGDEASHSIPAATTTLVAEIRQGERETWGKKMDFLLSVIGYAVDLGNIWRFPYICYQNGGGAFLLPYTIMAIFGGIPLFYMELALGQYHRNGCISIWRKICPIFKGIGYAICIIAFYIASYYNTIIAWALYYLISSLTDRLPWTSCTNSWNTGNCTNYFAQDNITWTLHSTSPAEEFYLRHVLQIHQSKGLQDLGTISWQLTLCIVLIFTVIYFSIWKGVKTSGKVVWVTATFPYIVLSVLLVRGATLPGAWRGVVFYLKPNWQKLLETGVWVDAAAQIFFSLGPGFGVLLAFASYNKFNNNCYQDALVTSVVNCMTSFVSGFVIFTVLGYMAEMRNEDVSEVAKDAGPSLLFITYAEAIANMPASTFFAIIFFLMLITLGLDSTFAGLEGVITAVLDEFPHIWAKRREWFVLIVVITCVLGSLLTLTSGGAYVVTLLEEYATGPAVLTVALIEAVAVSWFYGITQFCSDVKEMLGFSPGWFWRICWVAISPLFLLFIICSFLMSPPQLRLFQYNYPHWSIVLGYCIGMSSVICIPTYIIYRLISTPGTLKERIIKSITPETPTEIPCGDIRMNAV

As to `CCNC(C)Cc1cccc(C(F)(F)F)c1` (racemic) [fenfluramine, (±)-N-ethyl-1-[3-(trifluoromethyl)phenyl]propan-2-amine hydrochloride], in experiment [1], the “persistent elevation of extracellular 5-HT for the duration of sampling” value is on record as 500-800% and the “extracellular 5-HT after the first dose” value is given as ~1200 % of basal. Further, in experiment [2], the dialysate dopamine result is given as “about 150 % of basal”.
On to `CC(N)Cc1cccc(C(F)(F)F)c1.Cl` (single isomer, unassigned; (+)) [d-norfenfluramine, (+)-1-[3-(trifluoromethyl)phenyl]propan-2-amine hydrochloride], for which the “concentration at which maximal current was measured” value (“concentration” below) at hSERT (hSERT-expressing oocytes) is 100 µM. Moreover, the “current magnitude relative to mCPP, TFMPP or MTA” value at hSERT (maximal currents, hSERT-expressing oocytes) is on record as “up to 2 times”. In addition, at hSERT, the “inwardly-directed current compared to 5-HT-induced current” value is recorded as “almost as high as the 5-HT-induced current”. For the same compound, at SERT, the “Emax of 5-HT release” value came to 100%.
For the compound `CSc1ccc(CC(C)N)cc1.CSc1ccc(C[C@@H](C)N)cc1` [MTA, 4-Methylthioamphetamine ((2R)-1-[4-(methylsulfanyl)phenyl]propan-2-amine)], the “concentration” value at hSERT (hSERT-expressing oocytes) was determined as 3 µM. The “inwardly-directed current compared to 5-HT-induced current” value on hSERT is listed as “comparably small current”.
On to `Cl.FC(F)(F)c1cccc(N2CCNCC2)c1` [TFMPP, 1-(3-trifluoromethylphenyl)piperazine hydrochloride], for which the “extracellular 5-HT after the first dose” value in experiment [1] was “about 1400 % of basal”. For the same compound, in experiment [3], the “releasing [3H]dopamine” value was “inactive”. The dialysate dopamine in experiment [2] is 80 % of basal. In addition, on hSERT, the pEC50 is 5.61 and the “inwardly-directed current compared to 5-HT-induced current” value was “about half the 5-HT-induced current”. In addition, the “concentration” value at hSERT (hSERT-expressing oocytes) worked out at 3 µM.
As to `CCN[C@@H](C)Cc1cccc(C(F)(F)F)c1` [d-fenfluramine, (+)-N-ethyl-1-[3-(trifluoromethyl)phenyl]propan-2-amine hydrochloride], the “extracellular 5-HT after the first dose” value in experiment [1] is ~1200 % of basal. Further, the “releasing [3H]dopamine” value in experiment [3] was “inactive”.
In the case of `Cl.Cl.Clc1cccc(N2CCNCC2)c1` [mCPP, 1-(3-Chlorophenyl)piperazine dihydrochloride], in experiment [1], the “persistent elevation of extracellular 5-HT for the duration of sampling” value is on record as “about 500%” and the “extracellular 5-HT after the first dose” value is “about 1000 % of basal”. The “releasing [3H]dopamine” value in experiment [3] is “inactive”. For the same compound, the dialysate dopamine in experiment [2] is given as 150 % of basal. In addition, at hSERT, the pEC50 was 5.71 and the “inwardly-directed current compared to 5-HT-induced current” value is “about half the 5-HT-induced current”. Besides, on hSERT (hSERT-expressing oocytes), the “concentration” value was 3 µM.
